Numbers after ± are expanded uncertainties.
Conditions: 298 K; 101.33 kPa; Crystal; X-ray diffraction

| Structure (SMILES) | mass density [kg/m3] |
| --- | --- |
| CCCCCCCCC[NH3+].O=P([O-])(O)O [1-nonylammonium dihydrogen phosphate] | 1268 ± 2 |
| CCCCCCCC[NH3+].O=P([O-])(O)O [1-octanaminium dihydrogen phosphate] | 1282 ± 2 |

Source: the NIST ThermoML archive (doi:10.1021/je200352g)
